Patent publication EP0564801A1, “Analysis of host cell shut-off” (BOEHRINGER INGELHEIM INTERNATIONAL GmbH, priority 1992, dated 1993)

Columns and labels:
HRV2 2A = biological target: T1, HRV2 2A (Human rhinovirus 2, UniProt P04936); test: Competition assay of peptide substrates against reference peptide P8-P8' (HPLC analysis of cleavage); assay type: biochemical; conditions: for Spaltbarkeit durch HRV2 2A (result in words): competition assay with P8-P8'
T1 construct: wurden mit einer reifen, rekombinanten HRV2 2A durchgeführt; made in house
Excerpt: Die Substratspezifitätsstudien, wie auch alle anderen Studien in diesem Beispiel, wurden mit einer reifen, rekombinanten HRV2 2A durchgeführt. Mittels Kompetitionsstudien unter Verwendung eines 16-mer Wildtyp-Peptidsubstrats (P8-P8') als Referenzpeptid wurde der jeweilige (Vmax/Km)rel-Wert für das mutierte Peptidsubstrat ermittelt. Das Peptid P8-P8' ([…]* […] (SEQ ID NO. 23)) entspricht der nativen Spaltstelle von HRV2 2A im Polyprotein ([…] ist der C-terminale Teil von VP1 und […] der N-Terminus von HRV2 2A). Dieses Peptid wird von der rekombinanten HRV2 2A intermolekular korrekt zwischen Ala und Gly prozessiert (Km-Wert: (5,4±0,02) x 10⁻⁴ Mol/l; Sommergruber et al., loc cit). […] Die Kompetitionsreaktion wurde durch Zugabe von 1 µl einer reinen (ca. 95%) HRV2 2A Stammlösung (2mg/ml in Puffer A + 0,05% NaN₃) gestartet. 50 µl Proben wurden jeweils nach 30, 60, 90, 120 und 150 sek bzw. nach 2, 4, 8, 16 und 32 min entnommen, in ein ULTRAFREE-MC Röhrchen (10,000 NMWL; Fa. Millipore) mit jeweils 250 µl 0,5 M HClO₄ transferriert (Reaktionsstop), gemischt und auf Eis gestellt (mindestens 15 min). Anschließend wurde die Lösung 30 min bei 14K, 4°C in einer SIGMA Eppendorfzentrifuge zentrifugiert. Das Filtrat wurde direkt zur HPLC Analyse eingesetzt. Peptidsubstrate und deren Spaltprodukte wurden entweder auf einem Kurzgradienten (5,5 min; 5,4% B/min; Merck Supersphere C18 Säule, 4x50 mm) oder einem Langgradienten (34,5 min; 0,8% B/min; Bakerbond WP C18 Säule, 4,6x250mm) aufgetrennt. Die Messung der UV Absorption wurde bei 210 nm und 280 nm durchgeführt. Die Spaltprodukte wurden mittels Komigration von Referenzpepetiden und/oder durch Proteinsequenzierung (Hunkapiller und Hood (1983) Science 219, 650-659) identifiziert. Der prozentuelle Anteil der Spaltung für jeden Zeitpunkt wurde durch Vergleich der Flächen der C- und N-terminalen Produktpeaks mit dem des verbliebenen ungespaltenen Peptidsubstrats ermittelt. Zusätzlich wurden die Daten graphisch ausgewertet, um etwaige Abweichungen vom klassischen Kurvenverlauf zu erkennen (z.B. sigmoide Kurve, allosterische Effekte etc.). Bei keinem der in Abb. 23 angeführten mutierten Peptidsubstrate konnte solch ein Effekt beobachtet werden. Für jedes Substrat und dessen Spaltprodukte war die Gesamtfläche der Peaks unabhängig vom Maß der Spaltung (< 5%). Für zwei Peptidsubstrate 1 und 2 ergeben sich in einem Kompetitionsassay nach Pallai et al. (Pallai et al. (1989) J. Biol. Chem. 264, 9738-9741) die (Vmax/Km)rel-Werte: (Vmax/Km)1/(Vmax/Km)2 = log(1-F1)/log(1-F2) [formula] wobei F der Anteil des umgesetzten Substrats ist. In allen Kompetitionsstudien waren Substrat- und Produktpeaks entweder auf dem langen oder dem kurzen bzw. auf beiden Gradienten über HPLC-Analyse voneinander trennbar. […]

host cell shut-off = test: Inhibition of host cell shut-off (statement, test not described); conditions: statement only, no data given
HRV2 2A Proteinase [1] = biological target: T2, HRV2 2A Proteinase (Human rhinovirus 2, UniProt P04936); test: In vitro translation of capped pLink-2C RNA in rabbit reticulocyte lysate pretreated with 2A preparation, with inhibitor; assay type: biochemical; conditions: 2A Präparation treated with 0,5 mM Elastatinal, Figur 8B, Spur 8
T2 construct: allen 142 Aminosäuren der 2A Proteinase von HRV2 und 2 Stoppcodons; N-terminal leader: first 14 aa of T7 gene 10 protein + last 7 aa of HRV2 VP1 (removed by self-cleavage) (N, cleaved yes); made in house; host or cells: E. coli BL21(DE3)LysS, plasmid pET/2A; 30 % ammonium sulfate precipitate
Method: In vitro Transkription dieser Plasmide nach Linearisierung mit BamHI mittels T7 RNA Polymerase wurde wie beschrieben (Duechler et al. (1989), loc. cit.) durchgeführt. Für die Synthese von RNA mit Cap-Struktur wird dem Transkriptionsansatz ⁷mGpppG und GTP zugesetzt. Zum Beispiel kann der von Duechler et al. (1989, loc. cit.) beschriebene Reaktionsansatz 1 mM 7MeGppG und 250 µm GTP enthalten. Am Ende der Reaktionszeit wurde die DNA durch Zugabe von DNase I (RNAse-frei, Boehringer Mannheim) verdaut, die Proteine durch Phenolextraktion entfernt, und die RNA nach Zugabe von einem Drittel Volumen 8 M Ammoniumacetat mit Ethanol gefällt. Nach nochmaliger Fällung mit Ethanol wurde die RNA anschließend in Wasser aufgenommen und ein Aliquot durch Agarosegelelektrophorese auf Qualität überprüft. Der Laufpuffer enthielt 1% SDS. Für die in vitro Translation wurde jeweils 1 µg dieser RNAs eingesetzt. Die Reaktion enthielt in 20 µl 90 mM KCl, 0.3 mM MgCl₂, 10 mM Kreatinphosphat, 2 µl ³⁵S-Trans-Label (ICN; 10 µCi/µl, 1000 Ci/mmol) und 11,5 µl Kaninchenreticulocytenlysat, das mit Micrococcal Nuclease (Sigma) behandelt worden war. Das Kaninchenreticulocytenlysat wurde nach der Methode von Jackson, R. und Hunt, T. (Meth. Enzymol. (1983) 96, 50 - 74) durch Behandlung mit Micrococcal Nuclease hergestellt. […]

HRV2 2A Proteinase [2] = biological target: T2, HRV2 2A Proteinase; test: In vitro translation of globin RNA in HeLa cell extract pretreated with 2A proteinase, with inhibitor; assay type: biochemical; conditions: 2A Proteinase preincubated with 0,5 mM Elastatinal, Fig. 16C, Spur 4
Method: Zur Herstellung eines HeLa-Zellextraktes wurde eine 1 l HeLa-Suspensionkultur (z.B. HeLa S3 (03-157, FLOWLABS) oder HeLa Ohio (03-147, FLOWLABS)), (ca. 4 x 10⁵ Zellen/ml) in halb-logarithmischer Phase abzentrifugiert (20 min, 1200 rpm), mit isotonischem Puffer gewaschen, durch mehrmaliges "Douncen" (40- bis 50-mal) aufgebrochen und die Zelltrümmer durch Zentrifugation (3 min, 3000 rpm) entfernt. Der Überstand wurde erneut zentrifugiert (20 min, 10000 rpm), das Pellet verworfen und der neue Überstand nochmals zentrifugiert (20 min, 13000 rpm). Der erhaltene Überstand wurde dann bei 4°C gegen Dialysepuffer (zweimal je 400 ml) dialysiert und nochmals 20 Minuten bei 13000 rpm zentrifugiert (20 min, 13000 rpm). Der Überstand (S 20-Extrakt) wurde portioniert und in flüssigem Stickstoff gelagert. isotonischer Puffer: 10 mM Hepes, pH 7,9, 140 mM KCl, 1,5 mM MgCl₂, 1 mM EDTA, 0,5 mM PMSF. Dialysepuffer: 0,1 M KCl, 20 % Glycerin, 20 mM Hepes, pH 7,9, 0,2 mM EDTA, 0,5 mM DTT, 0,5 mM PMSF.
1 ml Portionen des S 20-Extraktes wurden dann mit Micrococcal Nuclease (Boehringer Mannheim; Nr. 107921) behandelt, um die endogene RNA abzubauen: Zunächst wurde der Extrakt zentrifugiert (15 min, 4°C, 13000 rpm) und das Pellet verworfen. Zum Überstand (1 ml) wurden zugegeben: 1,2 µl 1 M CaCl₂ 1,5 µl 1 M MgOAc 16,0 µl Micrococcal Nuclease (15 U/µl). […]

2A = 2A (Human rhinovirus 2, UniProt P04936); conditions: Sommergruber et al. (1992); read-out: IC50 für 2A; cited from earlier work
Chain of 2A (P04936 851-992): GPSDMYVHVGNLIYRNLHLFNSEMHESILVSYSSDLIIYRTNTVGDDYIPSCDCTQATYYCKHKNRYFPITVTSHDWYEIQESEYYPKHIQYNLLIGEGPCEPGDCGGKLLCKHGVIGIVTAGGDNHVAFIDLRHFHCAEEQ

T1 sequence (P04936 851-992): as above
T2 sequence (P04936 851-992): as above

p220-3: 16-mer Oligopeptid, Position im p220-Molekül 737-752 (SEQ ID NO. 124) (SSKRTAADKDRGEEDA; UniProt Q04637 737-752, looked up, fragment)
Competitive inhibition of HRV2 2A (HRV2 2A): wirken als kompetitive Inhibitoren
Spaltbarkeit durch HRV2 2A (result in words) (HRV2 2A): von HRV2 2A prozessiert werden können
Inhibition of host cell shut-off (host cell shut-off): in der Lage, den "host cell shut-off" zu inhibieren

p220-4: 16-mer Oligopeptid, Position im p220-Molekül 476-491 (SEQ ID NO. 125) (SEKGGEELLPPESTPI; UniProt Q04637 476-491, looked up, fragment)
Competitive inhibition of HRV2 2A (HRV2 2A): wirken als kompetitive Inhibitoren
Spaltbarkeit durch HRV2 2A (result in words) (HRV2 2A): von HRV2 2A prozessiert werden können
Inhibition of host cell shut-off (host cell shut-off): in der Lage, den "host cell shut-off" zu inhibieren

CC(C)C[C@H](NC(=O)N[C@H](C(=O)N[C@@H](CCC(N)=O)C(=O)N[C@@H](C)C=O)[C@@H]1CCNC(=N)N1)C(=O)O [Elastatinal]
Effect on 2A-induced change of translation pattern (HRV2 2A Proteinase [1]): die Inhibition von 2A verhindert die Änderung der Translationseigenschaften
Effect on 2A action on translation of Globin RNA (HRV2 2A Proteinase [2]): die 2A-Wirkung auf die Translation wird inhibiert
IC50 (2A): 50 µM
